Reference: patent publication US9546156B2, “N-bicyclic aryl,N'-pyrazolyl urea, thiourea, guanidine cyanoguanidine compounds as TrkA kinase inhibitors” (Array BioPharma Inc., priority 2012, dated 2017)

Key:
Experiment in all cases: Off-target kinase profiling (KinaseProfiler)
Assay type in all cases: biochemical
Settings in all cases: 10 μM, ATP near Km
ALK = molecular target: T1, ALK (Homo sapiens, UniProt Q9UM73)
T1 construct: purchased Millipore, Inc. (KinaseProfiler service)
Description: (§1) A representative compound (Example 16) of the invention was tested for off-target kinase activity at a concentration of 10 μM by Millipore, Inc. in their KinaseProfiler™ service against all the kinases available in their full kinase panel. The compound was run in duplicate at a concentration of ATP near the Km for each individual kinase according to Millipore's specifications. The results are shown in Table B. Data are reported as percent of control (POC) and are the average of the two replicates.

ARK5 = molecular target: T2, ARK5 (Homo sapiens, UniProt O60285)
T2 construct: purchased Millipore, Inc. (KinaseProfiler service)
Description: as §1

AURKA = molecular target: T3, AURKA (Homo sapiens, UniProt O14965)
T3 construct: purchased Millipore, Inc. (KinaseProfiler service)
Description: as §1

Abl-P = molecular target: T4, Abl-P (Homo sapiens, UniProt P00519)
T4 construct: purchased Millipore, Inc. (KinaseProfiler service)
Description: as §1

Abl2 = molecular target: T5, Abl2 (Homo sapiens, UniProt P42684)
T5 construct: purchased Millipore, Inc. (KinaseProfiler service)
Description: as §1

BLK_m = molecular target: T6, BLK_m (Mus musculus, UniProt P16277)
T6 construct: purchased Millipore, Inc. (KinaseProfiler service)
Description: as §1

CSK = molecular target: T7, CSK (Homo sapiens, UniProt P41240)
T7 construct: purchased Millipore, Inc. (KinaseProfiler service)
Description: as §1

DAPK3 = molecular target: T8, DAPK3 (Homo sapiens, UniProt O43293)
T8 construct: purchased Millipore, Inc. (KinaseProfiler service)
Description: as §1

EphA4 = molecular target: T9, EphA4 (Homo sapiens, UniProt P54764)
T9 construct: purchased Millipore, Inc. (KinaseProfiler service)
Description: as §1

EphA5 = molecular target: T10, EphA5 (Homo sapiens, UniProt P54756)
T10 construct: purchased Millipore, Inc. (KinaseProfiler service)
Description: as §1

EphA7 = molecular target: T11, EphA7 (Rattus norvegicus, UniProt P54759)
T11 construct: purchased Millipore, Inc. (KinaseProfiler service)
Description: as §1

FGFR1 = molecular target: T12, FGFR1 (Homo sapiens, UniProt P11362)
T12 construct: purchased Millipore, Inc. (KinaseProfiler service)
Description: as §1

FGFR4 = molecular target: T13, FGFR4 (Homo sapiens, UniProt P22455)
T13 construct: purchased Millipore, Inc. (KinaseProfiler service)
Description: as §1

Flt1 = molecular target: T14, Flt1 (Homo sapiens, UniProt P17948)
T14 construct: purchased Millipore, Inc. (KinaseProfiler service)
Description: as §1

GSK3alpha = molecular target: T15, GSK3alpha (Homo sapiens, UniProt P49840)
T15 construct: purchased Millipore, Inc. (KinaseProfiler service)
Description: as §1

Hck = molecular target: T16, Hck (Homo sapiens, UniProt P08631)
T16 construct: purchased Millipore, Inc. (KinaseProfiler service)
Description: as §1

IGF-1R = molecular target: T17, IGF-1R (Homo sapiens, UniProt P08069)
T17 construct: purchased Millipore, Inc. (KinaseProfiler service)
Description: as §1

IR Activated = molecular target: T18, IR Activated (Homo sapiens, UniProt P06213)
T18 construct: purchased Millipore, Inc. (KinaseProfiler service)
Description: as §1

IRAK1 = molecular target: T19, IRAK1 (Homo sapiens, UniProt P51617)
T19 construct: purchased Millipore, Inc. (KinaseProfiler service)
Description: as §1

Lck = molecular target: T20, Lck (Homo sapiens, UniProt P06239)
T20 construct: purchased Millipore, Inc. (KinaseProfiler service)
Description: as §1

MAPKAP-K3 = molecular target: T21, MAPKAP-K3 (Homo sapiens, UniProt Q16644)
T21 construct: purchased Millipore, Inc. (KinaseProfiler service)
Description: as §1

MEK1 = molecular target: T22, MEK1 (Homo sapiens, UniProt Q02750)
T22 construct: purchased Millipore, Inc. (KinaseProfiler service)
Description: as §1

MINK = molecular target: T23, MINK (Homo sapiens, UniProt Q8N4C8)
T23 construct: purchased Millipore, Inc. (KinaseProfiler service)
Description: as §1

MLK1 = molecular target: T24, MLK1 (Homo sapiens, UniProt P80192)
T24 construct: purchased Millipore, Inc. (KinaseProfiler service)
Description: as §1

MRCKalpha = molecular target: T25, MRCKalpha (Homo sapiens, UniProt Q5VT25)
T25 construct: purchased Millipore, Inc. (KinaseProfiler service)
Description: as §1

PKAC-alpha = molecular target: T26, PKAC-alpha (Homo sapiens, UniProt P17612)
T26 construct: purchased Millipore, Inc. (KinaseProfiler service)
Description: as §1

PKCalpha = molecular target: T27, PKCalpha (Homo sapiens, UniProt P17252)
T27 construct: purchased Millipore, Inc. (KinaseProfiler service)
Description: as §1

PKCbetaII = molecular target: T28, PKCbetaII (Homo sapiens, UniProt P05771)
T28 construct: purchased Millipore, Inc. (KinaseProfiler service)
Description: as §1

PKD1 = molecular target: T29, PKD1 (Homo sapiens, UniProt Q15139)
T29 construct: purchased Millipore, Inc. (KinaseProfiler service)
Description: as §1

PRKG1beta = molecular target: T30, PRKG1beta (Homo sapiens, UniProt Q13976)
T30 construct: purchased Millipore, Inc. (KinaseProfiler service)
Description: as §1

Plk3 = molecular target: T31, Plk3 (Homo sapiens, UniProt Q9H4B4)
T31 construct: purchased Millipore, Inc. (KinaseProfiler service)
Description: as §1

RIPK2 = molecular target: T32, RIPK2 (Homo sapiens, UniProt O43353)
T32 construct: purchased Millipore, Inc. (KinaseProfiler service)
Description: as §1

ROCK-II = molecular target: T33, ROCK-II (Homo sapiens, UniProt O75116)
T33 construct: purchased Millipore, Inc. (KinaseProfiler service)
Description: as §1

Rsk3 = molecular target: T34, Rsk3 (Homo sapiens, UniProt Q15349)
T34 construct: purchased Millipore, Inc. (KinaseProfiler service)
Description: as §1

SGK1 = molecular target: T35, SGK1 (Homo sapiens, UniProt O00141, S422D)
T35 construct: purchased Millipore, Inc. (KinaseProfiler service)
Description: as §1

SGK2 = molecular target: T36, SGK2 (Homo sapiens, UniProt Q9HBY8)
T36 construct: purchased Millipore, Inc. (KinaseProfiler service)
Description: as §1

SGK3 = molecular target: T37, SGK3 (Homo sapiens, UniProt Q96BR1)
T37 construct: purchased Millipore, Inc. (KinaseProfiler service)
Description: as §1

TLK2 = molecular target: T38, TLK2 (Homo sapiens, UniProt Q86UE8)
T38 construct: purchased Millipore, Inc. (KinaseProfiler service)
Description: as §1

TrkB = molecular target: T39, TrkB (Homo sapiens, UniProt Q16620)
T39 construct: purchased Millipore, Inc. (KinaseProfiler service)
Description: as §1

Txk = molecular target: T40, Txk (Homo sapiens, UniProt P42681)
T40 construct: purchased Millipore, Inc. (KinaseProfiler service)
Description: as §1

WNK2 = molecular target: T41, WNK2 (Homo sapiens, UniProt Q9Y3S1)
T41 construct: purchased Millipore, Inc. (KinaseProfiler service)
Description: as §1

T35 sequence (O00141 60-431 S422D limits assumed): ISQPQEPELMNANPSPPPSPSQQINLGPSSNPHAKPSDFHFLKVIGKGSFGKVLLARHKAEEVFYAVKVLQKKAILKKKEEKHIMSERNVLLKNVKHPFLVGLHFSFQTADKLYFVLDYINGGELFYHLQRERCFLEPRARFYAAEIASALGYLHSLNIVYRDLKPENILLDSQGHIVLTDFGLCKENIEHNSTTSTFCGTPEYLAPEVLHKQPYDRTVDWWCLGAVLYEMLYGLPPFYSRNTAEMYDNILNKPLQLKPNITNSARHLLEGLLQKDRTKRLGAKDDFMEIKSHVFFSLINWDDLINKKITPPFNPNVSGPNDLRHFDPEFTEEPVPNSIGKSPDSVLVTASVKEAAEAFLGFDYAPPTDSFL
T11 sequence (P54759 577-998 limits assumed): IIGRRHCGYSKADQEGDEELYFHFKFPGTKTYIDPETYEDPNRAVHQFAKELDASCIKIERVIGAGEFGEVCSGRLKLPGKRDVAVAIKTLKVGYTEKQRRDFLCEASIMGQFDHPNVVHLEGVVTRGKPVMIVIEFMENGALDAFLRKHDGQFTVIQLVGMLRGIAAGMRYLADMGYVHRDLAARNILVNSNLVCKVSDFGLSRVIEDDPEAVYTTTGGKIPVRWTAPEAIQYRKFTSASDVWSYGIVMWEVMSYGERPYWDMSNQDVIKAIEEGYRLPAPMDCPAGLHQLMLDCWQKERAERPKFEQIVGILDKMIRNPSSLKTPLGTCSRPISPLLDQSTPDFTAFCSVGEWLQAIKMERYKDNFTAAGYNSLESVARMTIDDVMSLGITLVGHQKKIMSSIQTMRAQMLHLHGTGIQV
T32 sequence (O43353 whole entry): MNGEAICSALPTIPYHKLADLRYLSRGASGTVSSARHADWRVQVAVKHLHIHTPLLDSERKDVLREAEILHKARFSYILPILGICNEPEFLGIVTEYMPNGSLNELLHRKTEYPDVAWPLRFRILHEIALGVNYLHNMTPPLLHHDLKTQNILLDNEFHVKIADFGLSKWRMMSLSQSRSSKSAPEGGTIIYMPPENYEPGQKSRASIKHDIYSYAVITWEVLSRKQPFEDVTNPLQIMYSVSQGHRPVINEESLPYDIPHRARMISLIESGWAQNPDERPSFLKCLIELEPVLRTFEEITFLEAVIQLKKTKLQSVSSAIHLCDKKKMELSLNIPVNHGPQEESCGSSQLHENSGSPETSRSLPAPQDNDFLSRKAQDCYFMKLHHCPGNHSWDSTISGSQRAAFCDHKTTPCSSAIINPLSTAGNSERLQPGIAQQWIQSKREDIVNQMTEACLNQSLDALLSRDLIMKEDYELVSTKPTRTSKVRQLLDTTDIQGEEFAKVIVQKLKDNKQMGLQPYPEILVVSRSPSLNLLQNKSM
T23 sequence (Q8N4C8 whole entry): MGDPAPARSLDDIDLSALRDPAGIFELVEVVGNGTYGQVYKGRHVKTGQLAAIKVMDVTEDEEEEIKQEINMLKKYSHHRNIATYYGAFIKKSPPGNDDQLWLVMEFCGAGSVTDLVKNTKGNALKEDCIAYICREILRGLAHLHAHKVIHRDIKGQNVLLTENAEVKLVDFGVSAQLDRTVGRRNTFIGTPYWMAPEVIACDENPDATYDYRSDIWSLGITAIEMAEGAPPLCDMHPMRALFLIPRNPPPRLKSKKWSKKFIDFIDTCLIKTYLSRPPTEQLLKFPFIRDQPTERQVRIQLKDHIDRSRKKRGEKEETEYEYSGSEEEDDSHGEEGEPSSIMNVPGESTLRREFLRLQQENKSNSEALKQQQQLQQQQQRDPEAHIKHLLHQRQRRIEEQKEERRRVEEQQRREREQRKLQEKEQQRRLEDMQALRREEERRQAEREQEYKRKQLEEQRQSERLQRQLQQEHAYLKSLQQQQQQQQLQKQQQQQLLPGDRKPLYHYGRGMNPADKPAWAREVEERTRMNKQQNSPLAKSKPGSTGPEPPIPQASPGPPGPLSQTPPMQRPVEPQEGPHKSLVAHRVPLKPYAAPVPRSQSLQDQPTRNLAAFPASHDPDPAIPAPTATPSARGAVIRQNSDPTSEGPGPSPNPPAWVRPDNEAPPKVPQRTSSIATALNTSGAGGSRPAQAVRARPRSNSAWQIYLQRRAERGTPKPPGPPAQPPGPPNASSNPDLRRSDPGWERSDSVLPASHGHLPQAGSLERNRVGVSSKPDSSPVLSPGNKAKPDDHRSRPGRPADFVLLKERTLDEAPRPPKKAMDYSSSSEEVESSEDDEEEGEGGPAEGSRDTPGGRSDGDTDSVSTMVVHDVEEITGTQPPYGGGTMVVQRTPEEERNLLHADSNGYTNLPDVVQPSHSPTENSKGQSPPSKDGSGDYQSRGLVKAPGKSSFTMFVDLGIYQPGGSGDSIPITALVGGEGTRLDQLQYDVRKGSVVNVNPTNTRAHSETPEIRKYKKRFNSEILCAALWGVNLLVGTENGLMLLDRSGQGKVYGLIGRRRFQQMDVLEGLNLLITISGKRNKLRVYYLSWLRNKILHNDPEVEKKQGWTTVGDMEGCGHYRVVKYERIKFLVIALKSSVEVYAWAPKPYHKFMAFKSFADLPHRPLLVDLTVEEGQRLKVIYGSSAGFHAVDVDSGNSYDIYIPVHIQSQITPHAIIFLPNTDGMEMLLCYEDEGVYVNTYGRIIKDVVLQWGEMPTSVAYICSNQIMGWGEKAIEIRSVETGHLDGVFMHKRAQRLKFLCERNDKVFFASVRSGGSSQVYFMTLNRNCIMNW
T41 sequence (Q9Y3S1 whole entry): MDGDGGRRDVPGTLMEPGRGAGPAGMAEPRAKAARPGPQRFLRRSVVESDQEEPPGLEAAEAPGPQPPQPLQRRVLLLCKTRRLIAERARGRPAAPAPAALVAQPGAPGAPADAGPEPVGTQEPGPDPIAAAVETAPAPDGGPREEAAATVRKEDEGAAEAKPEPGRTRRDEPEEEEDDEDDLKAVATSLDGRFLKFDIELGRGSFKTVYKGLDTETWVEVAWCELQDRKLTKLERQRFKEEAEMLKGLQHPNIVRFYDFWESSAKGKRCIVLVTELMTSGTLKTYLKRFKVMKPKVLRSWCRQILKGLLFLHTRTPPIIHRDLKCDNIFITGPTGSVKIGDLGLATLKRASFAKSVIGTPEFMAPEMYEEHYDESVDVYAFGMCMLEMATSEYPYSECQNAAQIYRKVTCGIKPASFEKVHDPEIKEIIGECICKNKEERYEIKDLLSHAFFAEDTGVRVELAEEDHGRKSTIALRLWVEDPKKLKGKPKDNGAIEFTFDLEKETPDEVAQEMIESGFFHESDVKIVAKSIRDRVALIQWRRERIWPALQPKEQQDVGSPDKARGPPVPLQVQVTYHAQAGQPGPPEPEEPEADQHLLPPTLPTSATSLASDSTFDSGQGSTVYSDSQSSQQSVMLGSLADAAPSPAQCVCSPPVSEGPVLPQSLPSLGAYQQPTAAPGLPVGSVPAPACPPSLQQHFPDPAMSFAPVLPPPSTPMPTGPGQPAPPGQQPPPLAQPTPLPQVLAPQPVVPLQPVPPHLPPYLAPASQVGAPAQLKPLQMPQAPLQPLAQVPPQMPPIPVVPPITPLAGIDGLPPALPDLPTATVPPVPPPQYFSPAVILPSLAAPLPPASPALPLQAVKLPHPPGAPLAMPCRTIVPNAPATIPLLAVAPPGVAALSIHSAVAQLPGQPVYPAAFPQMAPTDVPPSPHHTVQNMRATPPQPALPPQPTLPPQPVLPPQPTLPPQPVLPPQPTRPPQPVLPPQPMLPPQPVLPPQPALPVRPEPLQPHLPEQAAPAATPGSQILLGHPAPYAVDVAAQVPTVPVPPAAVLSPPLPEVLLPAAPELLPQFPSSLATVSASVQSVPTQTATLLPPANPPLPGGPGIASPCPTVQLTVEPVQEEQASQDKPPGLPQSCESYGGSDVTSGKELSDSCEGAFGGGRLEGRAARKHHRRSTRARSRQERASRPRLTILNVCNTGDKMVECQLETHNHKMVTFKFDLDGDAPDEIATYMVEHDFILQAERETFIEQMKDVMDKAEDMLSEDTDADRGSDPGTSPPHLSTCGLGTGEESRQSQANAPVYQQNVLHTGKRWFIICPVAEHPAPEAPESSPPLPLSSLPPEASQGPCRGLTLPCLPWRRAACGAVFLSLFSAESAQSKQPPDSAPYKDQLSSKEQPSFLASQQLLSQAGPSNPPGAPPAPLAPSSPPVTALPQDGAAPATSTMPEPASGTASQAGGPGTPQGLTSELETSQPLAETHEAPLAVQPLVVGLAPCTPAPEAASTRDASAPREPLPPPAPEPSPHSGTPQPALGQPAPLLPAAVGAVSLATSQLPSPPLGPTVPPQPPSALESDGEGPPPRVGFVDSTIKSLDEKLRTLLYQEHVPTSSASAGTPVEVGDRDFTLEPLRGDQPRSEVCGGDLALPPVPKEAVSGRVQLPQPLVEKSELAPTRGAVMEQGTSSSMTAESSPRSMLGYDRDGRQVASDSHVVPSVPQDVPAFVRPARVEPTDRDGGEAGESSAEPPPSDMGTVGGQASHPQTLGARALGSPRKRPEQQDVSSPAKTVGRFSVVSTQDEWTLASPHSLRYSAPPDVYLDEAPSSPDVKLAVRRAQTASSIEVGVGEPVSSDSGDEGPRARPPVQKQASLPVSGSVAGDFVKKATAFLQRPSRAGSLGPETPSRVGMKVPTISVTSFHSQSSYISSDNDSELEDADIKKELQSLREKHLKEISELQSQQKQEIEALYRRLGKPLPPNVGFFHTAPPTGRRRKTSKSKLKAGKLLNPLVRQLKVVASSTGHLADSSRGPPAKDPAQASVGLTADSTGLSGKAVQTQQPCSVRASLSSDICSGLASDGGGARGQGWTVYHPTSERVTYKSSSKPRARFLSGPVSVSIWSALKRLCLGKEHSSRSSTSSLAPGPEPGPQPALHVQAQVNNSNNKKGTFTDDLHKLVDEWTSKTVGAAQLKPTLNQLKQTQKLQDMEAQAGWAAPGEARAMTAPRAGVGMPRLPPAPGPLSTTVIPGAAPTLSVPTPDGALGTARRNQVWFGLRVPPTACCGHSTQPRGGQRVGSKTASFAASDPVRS

COCc1ccc2cccc(NC(=O)Nc3c(C)c(-c4cnn(C)c4)nn3-c3ccccc3)c2c1 [Example 16, 1-(1′,4-dimethyl-1-phenyl-1H,1′H-[3,4′-bipyrazol]-5-yl)-3-(7-(methoxymethyl)naphthalen-1-yl)urea]
Avg POC (ALK): 114.5 POC
Avg POC (ARK5): 103.5 POC
Avg POC (AURKA): 128 POC
Avg POC (Abl-P): 147 POC
Avg POC (Abl2): 119.5 POC
Avg POC (BLK_m): 106.5 POC
Avg POC (CSK): 132 POC
Avg POC (DAPK3): 120 POC
Avg POC (EphA4): 100.5 POC
Avg POC (EphA5): 118.5 POC
Avg POC (EphA7): 107 POC
Avg POC (FGFR1): 116 POC
Avg POC (FGFR4): 129 POC
Avg POC (Flt1): 115.5 POC
Avg POC (GSK3alpha): 125 POC
Avg POC (Hck): 135.5 POC
Avg POC (IGF-1R): 81 POC
Avg POC (IR Activated): 102.5 POC
Avg POC (IRAK1): 125 POC
Avg POC (Lck): 103 POC
Avg POC (MAPKAP-K3): 126.5 POC
Avg POC (MEK1): 114 POC
Avg POC (MINK): 118.5 POC
Avg POC (MLK1): 106 POC
Avg POC (MRCKalpha): 143.5 POC
Avg POC (PKAC-alpha): 134 POC
Avg POC (PKCalpha): 97 POC
Avg POC (PKCbetaII): 106.5 POC
Avg POC (PKD1): 117.5 POC
Avg POC (PRKG1beta): 119 POC
Avg POC (Plk3): 103.5 POC
Avg POC (RIPK2): 107 POC
Avg POC (ROCK-II): 105 POC
Avg POC (Rsk3): 106.5 POC
Avg POC (SGK1): 169.5 POC
Avg POC (SGK2): 147.5 POC
Avg POC (SGK3): 131.5 POC
Avg POC (TLK2): 106 POC
Avg POC (TrkB): 9 POC
Avg POC (Txk): 131 POC
Avg POC (WNK2): 122.5 POC
